# Reference: patent US20200009088A1, “COMPOSITIONS AND METHODS FOR TREATING ANDROGEN-INDEPENDENT CANCER” (The Regents of the University of California, priority 2017, published 2020)
# “Also recorded” adds a separate entry of the source.
# What was measured:
# [1] = tested on: C4-2BMDVR cells; test: ELISA cell death (apoptosis) assay; type: cell-based; settings: FIG. 8; for cell apoptosis: compound alone, analogs compared with niclosamide
# Experimental: To further examine the anti-cancer effects of these compounds, an ELISA cell death assay was performed.
# [2] = target: T1, AR-V7 (Homo sapiens, UniProt P10275); test: PSA-luc reporter in LNCaP cells co-transfected with AR-V7; settings: LNCaP cells co-transfected with AR-V7, FIG. 4
# T1 sequence (P10275 1-644 isoform P10275-3): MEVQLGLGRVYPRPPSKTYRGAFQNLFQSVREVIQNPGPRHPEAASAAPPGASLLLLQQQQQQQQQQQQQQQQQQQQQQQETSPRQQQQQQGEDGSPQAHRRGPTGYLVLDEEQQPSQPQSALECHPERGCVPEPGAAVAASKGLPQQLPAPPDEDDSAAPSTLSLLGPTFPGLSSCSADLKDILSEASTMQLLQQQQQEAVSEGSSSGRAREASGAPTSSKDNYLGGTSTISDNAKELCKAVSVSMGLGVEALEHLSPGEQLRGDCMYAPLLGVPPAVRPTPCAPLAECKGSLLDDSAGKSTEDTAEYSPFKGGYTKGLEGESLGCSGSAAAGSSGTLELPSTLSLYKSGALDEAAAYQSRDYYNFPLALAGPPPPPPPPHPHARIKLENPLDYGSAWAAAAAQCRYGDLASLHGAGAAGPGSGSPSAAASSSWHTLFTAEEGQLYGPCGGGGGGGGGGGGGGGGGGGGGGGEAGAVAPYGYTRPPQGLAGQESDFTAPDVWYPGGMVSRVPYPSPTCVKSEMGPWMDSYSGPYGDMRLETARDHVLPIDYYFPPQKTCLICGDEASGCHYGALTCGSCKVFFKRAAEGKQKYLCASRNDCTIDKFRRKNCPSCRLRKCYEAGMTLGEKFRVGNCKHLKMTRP
# Experimental: The luciferase activity was then determined. * denotes p<0.05.
# In addition, the effects on AR transcriptional activity were determined using PSA-luc as a reporter. LNCaP cells were cotransfected with PSA-luc together with or without AR-V7, and treated with the compounds.
# [3] = tested on: CWR22Rv1 cells; test: Cell growth assay (cell numbers), CWR22Rv1; type: cell-based; settings: for synergy with abiraterone in inhibiting cell growth: CWR22Rv1, analog 0.25 μM + abiraterone 5 μM; for cell growth, combination with abiraterone: CWR22Rv1, analog 0.25 μM + abiraterone 5 μM, 0, 3, 5 days; for cell growth, combination with abiraterone / cell growth, combination with enzalutamide: FIGS. 9, 11; for cell growth, combination with bicalutamide: CWR22Rv1, analog 0.25 μM + bicalutamide 20 μM, 0, 3, 5 days; for synergy with enzalutamide in inhibiting cell growth: CWR22Rv1, analog 0.25 μM + enzalutamide 20 μM; for cell growth, combination with enzalutamide: CWR22Rv1, analog 0.25 μM + enzalutamide 20 μM, 0, 3, 5 days; for cell growth, niclosamide analog alone: CWR22Rv1, analog 0.25 μM, 0, 3, 5 days, FIGS. 9, 11, 12
# Experimental: DMSO treatment was used as a negative control. Total cell numbers were counted at 0, 3, and 5 days.
# DMSO treatment was used as a negative control. Total cell numbers were counted at 0, 3, and 5 days. […]
# The cell growth was determined at 3,5 days. […] The cell growth was determined at 3,5 days.
# [4] = tested on: PSA; test: PSA protein expression by ELISA in C4-2 cells overexpressing AR-V7; type: cell-based; settings: C4-2-V7 cells, FIG. 3; for PSA expression: compound alone, ELISA; for enzalutamide-mediated PSA inhibition: in presence of enzalutamide (MDV)
# Experimental: PSA protein expression was determined by ELISA assay. * denotes p<0.05.
# [5] = tested on: C4-2B MDVR cells; test: Cell growth assay (cell numbers), C4-2B MDVR; type: cell-based; settings: for cell proliferation, combination with enzalutamide (MDV) / cell growth: C4-2B MDVR, 48 hours; for cell proliferation, combination with enzalutamide (MDV): 0.5 μM + enzalutamide, FIG. 7B; for cell growth: increasing doses of niclosamide/analogs, FIG. 6
# [6] = tested on: AR; test: Western blot of AR expression in CWR22Rv1 cell lysates; type: cell-based; settings: CWR22Rv1 cells, FIG. 2A
# Experimental: (§1) “AR-Variants” represents a combination of all forms of AR.
# The effects of the synthetic small molecule modulators on AR and AR variant expression were determined. CWR22Ry1 prostate cancer cells were treated with different compounds. Protein lysates were analyzed for AR and AR variant expression.
# [7] = target: T2, AR-V1 (Homo sapiens, UniProt P10275); test: PSA-luc assay in C4-2B cells, AR-V1; type: cell-based; settings: FBS, 1 μM overnight, FIG. 14B
# T2 construct: expressed in transfected cells; host or cells: C4-2B
# Excerpt: C4-2B cells were cotransfected with pcDNA, with or without AR-V1, AR-V3, AR-V7, AR-V9 or AR-V12, and with PSA-E/P-luciferase plasmids in FBS condition.
# [8] = tested on: MDA-MB-468 cells; test: Breast cancer cell growth, MDA-MB-468; type: cell-based; settings: three days, FIG. 20A
# [9] = tested on: AR variants; test: AR variant protein degradation (cycloheximide, MG132, ubiquitin IP) in CWR22Rv1 cells; type: cell-based; settings: FIG. 15
# Experimental: as §1
# To determine if the small molecule modulators affect AR-V7 protein expression via protein degradation, CWR22Rv1 and C4-2B MDVR cells were treated with cycloheximide (CHX) and the half-life of AR-V7 protein was measured.
# After 0, 2, 4, and 8 hours, whole cell lysate was collected and subjected to Western blot. The half-life of AR-V7 was then calculated.
# Subsequently, the whole cell lysate was collected and subjected to Western blot.
# For the data shown in FIG. 15C, CWR22Rv1 cells were treated with Nic, Compound 7, or Compound 31. Subsequently, whole cell lysate was immunoprecipitated with an AR antibody and blotted with ubiquitin and AR antibodies.
# [10] = tested on: C4-2B AbiR cells; test: Cell growth assay (cell numbers), C4-2B AbiR; type: cell-based; settings: 0.5 μM + enzalutamide, 48 hours, FIG. 7C
# [11] = target: T3, T878A AR mutant (Homo sapiens, UniProt P10275, T878A); test: AR transactivation luciferase assay in HEK 293 cells, T878A; type: cell-based; settings: luciferase reporter, FIG. 5C
# T3 construct: expressed in transfected cells; host or cells: HEK 293
# Experimental: (§2) HEK 293 cells were transiently transfected with expression vectors encoding the corresponding mutant AR and an androgen-responsive luciferase reporter gene construct. […] Luciferase activity was then determined.
# [12] = target: T4, K581R AR mutant (Homo sapiens, UniProt P10275, K581R); test: AR transactivation luciferase assay in HEK 293 cells, K581R; type: cell-based; settings: luciferase reporter, FIG. 5D
# T4 construct: expressed in transfected cells; host or cells: HEK 293
# Experimental: as §2
# [13] = in vivo; settings: male, Sprague-Dawley, rat, in vivo, po, 200 mg/kg
# Experimental: Blood samples were obtained at the time points indicated in FIG. 18 (0 minutes, 15 minutes, 30 minutes, 1 hour, 1.5 hours, 2 hours, 4 hours, 6 hours, 8 hours, and 24 hours) and the plasma was isolated for LC-MS analysis.
# [14] = target: T1, AR-V7; test: AR transactivation luciferase assay in HEK 293 cells, AR-V7; type: cell-based; settings: luciferase reporter, FIG. 5B
# Experimental: as §2
# [15] = target: T5, L702H AR mutant (Homo sapiens, UniProt P10275, L702H); test: AR transactivation luciferase assay in HEK 293 cells, L702H; type: cell-based; settings: luciferase reporter, FIG. 5F
# T5 construct: expressed in transfected cells; host or cells: HEK 293
# Experimental: as §2
SMILES,cell apoptosis [1],"apoptotic cell death, combination with enzalutamide (MDV) [1]",AR-V7 mediated PSA-luc activity [2],synergy with abiraterone in inhibiting cell growth [3],"cell growth, combination with abiraterone [3]","cell growth, combination with bicalutamide ([3]; FIG. 12)",synergy with enzalutamide in inhibiting cell growth [3],"cell growth, combination with enzalutamide [3]","cell growth, niclosamide analog alone [3]",PSA expression [4],enzalutamide-mediated PSA inhibition [4],"cell proliferation, combination with enzalutamide (MDV) [5]",cell growth [5],AR expression [6],AR-V1-mediated PSA-luc activity [7],breast cancer cell growth [8],AR variant degradation via the proteasome-ubiquitination system [9],"cell proliferation, combination with enzalutamide (MDV) [10]",T878A mutant AR transactivation [11],K581R mutant AR transactivation [12],other results
O=C(Nc1ccc(C(F)(F)F)cc1Cl)c1cc(Cl)ccc1O [Compound 7],further enhanced,further increased,inhibited,able to synergize,able to significantly inhibit,able to significantly inhibit,able to synergize,able to significantly inhibit,"None of Compounds 1, 7, 30, 31, or 34 alone were able to inhibit",inhibited,further enhanced,further inhibited,able to inhibit cell growth in a dose-dependent manner,inhibited,inhibited,inhibited,degraded,further inhibited,significantly blocked,significantly blocked,"enhancement of abiraterone treatment (cell growth) ([3]; CWR22Rv1, 0.5 μM Compound 7 + 5 μM abiraterone, 3,5 days, FIG. 17B): significantly enhanced; enhancement of apalutamide treatment (cell growth) ([3]; CWR22Rv1, 0.5 μM Compound 7 + 20 μM apalutamide, 3,5 days, FIG. 17A): significantly enhanced; AUC(0-inf) [13]: 4.28 µM·h; AUC_% Extrap_obs [13]: 15.35 +/− 3.08%; HL_Lambda_z [13]: 580.54 ± 86.4 min; AR-V7 transactivation [14]: significantly blocked; L702H mutant AR transactivation [15]: significantly blocked"
C=CC(=O)Oc1ccc(Cl)cc1C(=O)Nc1ccc([N+](=O)[O-])cc1Cl [Compound 31],further enhanced,further increased,inhibited,able to synergize,significantly inhibited,able to significantly inhibit,able to synergize,significantly inhibited,"None of Compounds 1, 7, 30, 31, or 34 alone were able to inhibit",inhibited; also recorded: strongest effect,further enhanced,further inhibited,able to inhibit cell growth in a dose-dependent manner,inhibited,inhibited,inhibited,degraded,further inhibited,significantly blocked,significantly blocked,"synergy with bicalutamide in inhibiting cell growth ([3]; CWR22Rv1, analog 0.25 μM + bicalutamide 20 μM, FIG. 12): able to synergize; synergy with abiraterone in inhibiting cell growth ([5]; C4-2BMDVR, analog 0.25 μM + abiraterone 5 μM, FIG. 10): able to synergize; synergy with enzalutamide in inhibiting cell growth ([5]; C4-2BMDVR, analog 0.25 μM + enzalutamide 20 μM, FIG. 10): able to synergize; AUC(0-inf) [13]: 6.48 µM·h; AUC(0-t) [13]: 6.37 µM·h; AUC_% Extrap_obs [13]: 2.3 +/− 1.85%; Cmax [13]: 2690 nM; HL_Lambda_z [13]: 276.51 ± 92.17 min; Tmax [13]: 25 min; Cmax ([13]; Cmax): 2680 nM; AR-V7 transactivation [14]: significantly blocked; L702H mutant AR transactivation [15]: significantly blocked"
